{"source": "patent US8815565B2", "about": "“Method for culturing mycoplasma contamination-free cells and method for removing mycoplasma contamination of cells” (Cellsafe Co., Ltd., priority 2010, dated 2014)", "test_system": "Mycoplasma hyorhinis (ATCC 17981) inoculated on HepG2 cell line", "experiment": "Preventive activity against mycoplasma contamination during cell culturing", "format": "cell-based", "conditions": "20 μg/ml AM3 and 20 μM surfactin, 1×10^3 cfu Mycoplasma hyorhinis", "protocol": "A cell line HepG2, which was not contaminated with mycoplasma, was inoculated at a concentration of 1×10^5 cells on DMEM (GIBCO BRL, Cat. No. 12800-058) including 10% or less serum (GIBCO BRL, Cat. No. 10082-147). The cell line was treated with 20 μg/ml of amphidinol 3 (AM3) and 20 μM of surfactin, followed by inoculation of 1×10^3 cfu (colony formin unit) of Mycoplasma hyorhinis (ATCC 17981). The cell line was cultured in an incubator at a temperature of 37° C. and in a condition of 5% CO2 for 3 days. Sub-culturing was performed twice per week. The cells were harvested every week and then PCR was performed thereon with a mycoplasma diagnosis kit (Promokine, Germany; Cellsafe Co., Ltd., Korea) according to the enclosed protocol. The resulting PCR products were electrophoresed on a 1% agarose gel to measure the mycoplasma contamination."}
{"smiles": "C=C/C=C/CC/C=C/C=C/C=C/CC/C=C/C(O)C(O)C1OC(C(O)C(O)C(=C)CCC(O)C2CC(O)C(O)C(C(O)C(O)/C=C(\\C)CCC(O)CC(O)C(O)C(C)CC(O)C(O)CCCCCC(O)CCCC(O)/C=C/CC(O)/C=C/CC(O)CO)O2)CC(O)C1O", "note": "(stereo not shown) [AM3, amphidinol 3]", "values": [{"measurement": "mycoplasma contamination after artificial inoculation", "value": "stably cultured without mycoplasma contamination"}]}
